# Test results taken from article PMC8209004, “Structural basis of GTPase-mediated mitochondrial ribosome biogenesis and recycling” (Nature Communications, 2021).
# Target: T1, GTPBP6 (Homo sapiens, UniProt O43824)
# T1 construct: Δ43GTPBP6 (first 43 residues removed); 6xHis-MBP tag cleaved with TEV; expressed in E. coli BL21 (DE3) RIL; modelled residues 94-515
# T1 sequence (O43824 44-516): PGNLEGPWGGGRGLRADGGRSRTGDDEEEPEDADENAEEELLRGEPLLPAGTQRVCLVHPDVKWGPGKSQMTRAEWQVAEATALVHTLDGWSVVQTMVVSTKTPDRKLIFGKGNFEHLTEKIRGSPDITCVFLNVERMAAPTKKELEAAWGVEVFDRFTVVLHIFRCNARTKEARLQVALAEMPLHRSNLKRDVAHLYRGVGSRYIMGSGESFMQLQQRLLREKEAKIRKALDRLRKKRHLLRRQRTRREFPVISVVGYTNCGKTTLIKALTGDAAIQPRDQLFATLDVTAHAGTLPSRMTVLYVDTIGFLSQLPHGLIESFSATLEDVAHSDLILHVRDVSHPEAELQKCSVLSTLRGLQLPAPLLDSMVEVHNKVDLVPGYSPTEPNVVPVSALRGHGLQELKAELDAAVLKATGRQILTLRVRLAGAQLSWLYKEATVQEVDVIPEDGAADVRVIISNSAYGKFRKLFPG
# Assay: cryo-EM structure of GTPBP6-bound mtLSU
# Assay type: binding
# Conditions: bound in GTPase domain; 1 mM GTP and 1 mM ATP, pH 7.4, 4 °C; biogenesis intermediate at 2.6 Å and mature mtLSU at 2.7 Å
structure (smiles),measurement,value
Nc1nc2c(ncn2[C@@H]2O[C@H](COP(=O)(O)OP(=O)(O)OP(=O)(O)O)[C@@H](O)[C@H]2O)c(=O)[nH]1 [GTP],cryo-EM structure of GTPBP6-bound mtLSU,shows clear density for a bound GTP molecule
